The values below come from patent publication US5399565A, “Pyrazolidinone CCK and gastrin antagonists and pharmaceutical formulations therof” (priority 1993, dated 1995).

Assay [1] has as its target T1, peripheral type CCK receptors in rat pancreas (Rattus norvegicus, UniProt P30551).
T1 construct: Pancreas was obtained from male Sprague-Dawley rats; from tissue; host or cells: pancreas membranes of male Sprague-Dawley rats
T1 sequence (P30551 1-444): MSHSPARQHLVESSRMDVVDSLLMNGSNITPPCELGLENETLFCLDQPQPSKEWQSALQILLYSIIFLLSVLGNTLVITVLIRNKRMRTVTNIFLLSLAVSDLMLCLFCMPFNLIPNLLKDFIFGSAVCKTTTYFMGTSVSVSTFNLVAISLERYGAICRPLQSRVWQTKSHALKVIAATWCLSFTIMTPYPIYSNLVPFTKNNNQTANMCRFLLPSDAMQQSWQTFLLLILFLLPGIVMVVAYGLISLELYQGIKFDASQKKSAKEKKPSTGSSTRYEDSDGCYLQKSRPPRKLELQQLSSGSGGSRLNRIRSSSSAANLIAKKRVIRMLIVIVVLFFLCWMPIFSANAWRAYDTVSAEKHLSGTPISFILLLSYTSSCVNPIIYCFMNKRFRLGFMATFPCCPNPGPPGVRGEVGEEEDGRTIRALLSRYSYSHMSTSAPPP
In words: Binding to peripheral type CCK receptors in rat pancreas (3H-L-364,718). Particulars: for inhibition at 10 µM: read-out: Pancreas Percent Inhibition; for IC50: rat pancreas. A digest of the protocol:
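Washed pancreatic membranes from male Sprague-Dawley rats (150-200 g) incubated 1 h at room temperature with 0.4-0.6 nM ³H-L-364,718 in 50 mM Tris pH 7.4, 5 mM MgCl2, bacitracin, 5 mM DTT. Bound radioactivity counted after filtration; nonspecific binding defined with 100 nM L-364,718; IC50 determined.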

Assay [2] has as its target T2, brain CCK receptor (Mus musculus, UniProt P56481).
T2 construct: from tissue; host or cells: forebrain membranes of male CF-1 mice
T2 sequence (P56481 1-453): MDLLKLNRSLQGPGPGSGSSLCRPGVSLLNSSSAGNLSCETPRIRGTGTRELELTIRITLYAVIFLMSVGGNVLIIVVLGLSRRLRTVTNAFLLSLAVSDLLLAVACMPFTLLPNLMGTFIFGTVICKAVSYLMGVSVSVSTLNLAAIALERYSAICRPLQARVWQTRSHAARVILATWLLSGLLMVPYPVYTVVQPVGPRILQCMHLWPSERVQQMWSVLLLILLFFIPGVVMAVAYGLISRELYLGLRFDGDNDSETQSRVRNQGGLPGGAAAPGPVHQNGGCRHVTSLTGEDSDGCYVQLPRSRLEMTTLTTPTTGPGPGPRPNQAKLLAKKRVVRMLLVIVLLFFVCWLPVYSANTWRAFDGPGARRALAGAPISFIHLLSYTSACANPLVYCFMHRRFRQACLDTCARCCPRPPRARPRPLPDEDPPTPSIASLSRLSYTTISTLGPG
In words: CCK receptor binding, mouse brain membranes (125I-CCK-8 sulfate). Particulars: for IC50: mouse brain membranes, read-out: Brain IC50; for inhibition at 10 µM: read-out: Brain Percent Inhibition.

Assay [3] deals with T3, gastrin receptor (Cavia porcellus, UniProt H0VZC5).
T3 construct: Guinea pig stomach fundus was obtained from male Hartley guinea pigs; from tissue; host or cells: stomach fundus mucosal membranes of male Hartley guinea pigs
T3 sequence (H0VZC5 1-426): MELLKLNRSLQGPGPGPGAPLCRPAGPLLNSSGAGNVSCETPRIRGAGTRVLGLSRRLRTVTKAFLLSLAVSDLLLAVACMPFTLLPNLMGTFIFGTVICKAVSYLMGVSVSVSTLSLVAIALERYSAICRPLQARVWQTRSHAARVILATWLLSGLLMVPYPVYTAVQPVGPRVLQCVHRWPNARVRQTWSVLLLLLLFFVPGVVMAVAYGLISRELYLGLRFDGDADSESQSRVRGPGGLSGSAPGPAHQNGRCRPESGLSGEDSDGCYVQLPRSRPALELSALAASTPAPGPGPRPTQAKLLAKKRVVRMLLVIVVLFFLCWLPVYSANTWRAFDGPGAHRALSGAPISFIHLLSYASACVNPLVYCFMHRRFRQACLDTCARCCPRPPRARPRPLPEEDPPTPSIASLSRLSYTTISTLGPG
Description: Gastrin binding to guinea pig stomach mucosal membranes (125I-gastrin I). Particulars: guinea pig stomach mucosal membranes; read-out: Gastrin IC50. The procedure: The method used for gastrin binding to guinea pig stomach mucosal membranes was similar to that described by Takeuchi, Speir and Johnson (Am. J. Physiol. 237(3): E284-E294, 1979). Guinea pig stomach fundus was obtained from male Hartley guinea pigs, 300-350 g, and the mucosa was scraped off with a glass slide. The mucosa was homogenized in 50 mM Tris buffer, pH 7.4, containing 1 mM phenylmethanesulfonyl fluoride using a Dounce glass homogenizer, and the suspension was centrifuged at 40,000 g for 10 min. The resulting pellet was resuspended and centrifuged once more, the final pellet was then suspended in 100 ml assay buffer per 1 guinea pig stomach to give a protein concentration of 200-300 μg/200 μl. The assay buffer consisted of 50 mM Tris buffer, pH 7.4, 5 mM MgCl2, 0.14 mg/ml bacitracin, and 1 μg/ml each of leupeptin, chymostatin, aprotinin and pepstatin. Reagent volumes for the assay were the same as those used for CCK binding to brain membranes. The radioactive ligand was 20 pM ^125 I-gastrin I, from DuPont NEN (NEX-176). The samples were incubated 3 hours at room temperature and filtered and counted as described for CCK binding to brain membranes. Compound samples were prepared and IC-50 values were determined as described for the CCK-brain receptor binding. Non-specific binding was determined using 100 nM gastrin I (human synthetic from Sigma Chemical Co.).

By inhibition is commonly meant the drop in the measured response relative to a control, in per cent. In general, IC50 refers to the midpoint of a concentration-inhibition curve. Take `COc1ccccc1C1C(c2ccccc2)C(=O)NN1C(=O)Nc1ccc(Br)cc1` (stereo not drawn) [Example 115]: the inhibition at 10 µM in assay [1] is 53%. Further, the IC50 in assay [2] worked out at 150 nM; in assay [3], 320 nM.

Turning to `O=C1NN(C(=O)Nc2ccc(Br)cc2)[C@@H](c2cccc(Cl)c2Cl)[C@@H]1c1ccccc1` (relative stereo) [Example 116], the inhibition at 10 µM in assay [1] turned out to be 80%. Also, the IC50 is 31 nM in assay [2] and 230 nM in assay [3].

As for `O=C1NN(C(=O)Nc2ccc(Br)cc2)C(c2ccccc2Cl)C1c1ccccc1` (stereo not drawn) [Example 114], the inhibition at 10 µM in assay [1] is 38%. The values for the IC50 in assay [2] and in assay [3] were 20 nM and 360 nM, respectively.

As for `COc1cccc(C2C(c3ccccc3)C(=O)NN2C(=O)Nc2ccc(C(F)(F)F)cc2)c1` (stereo not drawn) [Example 112], the inhibition at 10 µM in assay [1] stood at 42%. The results for the IC50 in assay [2] and in assay [3] were 72 nM and 1400 nM, respectively.

On to `CC(C)c1ccc(NC(=O)N2NC(=O)C(c3ccccc3)C2c2ccccc2Cl)cc1` (stereo not drawn) [Example 121], for which the inhibition at 10 µM in assay [1] stood at 26%. Besides, the IC50 amounted to 14 nM in assay [2] and 120 nM in assay [3].

Take `O=C1NN(C(=O)Nc2ccc(Br)cc2)C(c2ccccc2)C1c1ccccc1Cl` (stereo not drawn) [Example 122]: the IC50 in assay [1] amounted to 8600 nM; in assay [2], 15 nM; in assay [3], 220 nM.

Consider `O=C1NN(C(=O)Nc2ccc(Cl)c(Cl)c2)[C@H](c2ccccc2)[C@H]1c1ccccc1` (relative stereo) [Example 46], for which the IC50 in assay [1] is 1200 nM; in assay [2], 42 nM; in assay [3], 210 nM.

`CC(C)(C)c1ccc(NC(=O)N2NC(=O)[C@@H](c3ccccc3)[C@@H]2c2ccccc2)cc1` (relative stereo) [Example 30]: the inhibition at 10 µM in assay [1] came out at 49%. In addition, the IC50 in assay [2] came to 31 nM; in assay [3] it was 350 nM.

Turning to `O=C1NN(C(=O)Nc2ccc(Cl)c(C(F)(F)F)c2)C(c2ccccc2Cl)C1c1ccccc1` (stereo not drawn) [Example 120], the inhibition at 10 µM in assay [1] was 87%. The figures for the IC50 in assay [2] and in assay [3] were 16 nM and 120 nM, respectively.

With `O=C1NN(C(=O)Nc2ccc(Br)cc2)[C@@H](c2ccccc2Cl)[C@@H]1c1ccccc1Cl` (relative stereo) [Example 133], the results for the half-inhibitory concentration (IC50) in assay [1], in assay [2] and in assay [3] were 7900 nM, 6 nM and 25 nM, respectively.

On to `O=C1NN(C(=O)Nc2ccc(Br)cc2)[C@@H](c2ccccc2Cl)[C@H]1c1ccccc1Cl` (relative stereo) [Example 133A], for which, in assay [1], the inhibition at 10 µM amounted to 55%. For the same compound, the values for the IC50 in assay [2] and in assay [3] were 360 nM and 1500 nM, respectively.

`O=C1NN(C(=O)Nc2cnc3ccccc3c2)[C@@H](c2ccccc2)[C@@H]1c1ccccc1` (relative stereo) [Example 92]: the inhibition at 10 µM in assay [1] came to 88%. Besides, the figures for the IC50 in assay [2] and in assay [3] were 64 nM and 160 nM, respectively.

As for `O=C1NN(C(=O)Nc2ccc3ncccc3c2)[C@@H](c2ccccc2)[C@@H]1c1ccccc1` (relative stereo) [Example 93], the inhibition at 10 µM in assay [1] was 75%. Besides, the IC50 in assay [2] amounted to 290 nM; in assay [3], 660 nM.

Consider `CC(C)c1ccc(NC(=O)N2NC(=O)[C@@H](c3ccccc3)[C@@H]2c2ccccc2)cc1` (relative stereo) [Example 29], for which, in assay [1], the inhibition at 10 µM was determined as 47%. The IC50 was 25 nM in assay [2] and 260 nM in assay [3].

As for `O=C1NN(C(=O)Nc2ccc(Br)cc2)C(c2ccccc2)C1c1cccc([N+](=O)[O-])c1` (stereo not drawn) [Example 125], the inhibition at 10 µM in assay [1] was found to be 42%. For the same compound, the 50% inhibitory concentration (IC50) in assay [2] amounted to 100 nM; in assay [3] it was 590 nM.

For `O=C1NN(C(=O)Nc2ccc(Cl)c(C(F)(F)F)c2)C(c2ccccc2)C1c1ccccc1Cl` (stereo not drawn) [Example 131], the inhibition at 10 µM in assay [1] worked out at 61%. Also, the IC50 in assay [2] is 12 nM; in assay [3] it was 62 nM.

With `O=C(Nc1ccc(Cl)c(C(F)(F)F)c1)N1N[C@@H](c2ccccc2)[C@H](c2ccccc2)C1=O` (relative stereo) [Example 8, 2-[(4-Chloro-3-trifluoromethylphenyl)amino-carbonyl]-4,5-diphenyl-3-pyrazolidinone], the inhibition at 10 µM in assay [1] came to 2%; in assay [2], 34%.

In the case of `O=C1NN(C(=O)NCc2cccc(Cl)c2)[C@@H](c2ccccc2)[C@@H]1c1ccccc1` (relative stereo) [Example 99], in assay [1], the inhibition at 10 µM was found to be 86%. Further, the IC50 in assay [2] was found to be 3300 nM.

As for `CC(C)Oc1ccc(NC(=O)N2NC(=O)[C@@H](c3ccccc3)[C@@H]2c2ccccc2)cc1` (relative stereo) [Example 35], the inhibition at 10 µM in assay [1] was determined as 48%. Moreover, in assay [2], the IC50 stood at 390 nM.

In the case of `O=C1NN(C(=O)N2CCc3ccccc3C2)[C@@H](c2ccccc2)[C@@H]1c1ccccc1` (relative stereo) [Example 109], in assay [1], the inhibition at 10 µM came to 11%. For the same compound, in assay [2], the IC50 worked out at 6000 nM.

Consider `O=C1NN(C(=O)Nc2cccc(Cl)c2Cl)[C@H](c2ccccc2)[C@H]1c1ccccc1` (relative stereo) [Example 54], for which the inhibition at 10 µM in assay [1] came to 53%. Further, the IC50 in assay [2] was found to be 1150 nM.

For the compound `O=C1NN(C(=O)NCCCc2ccccc2)[C@@H](c2ccccc2)[C@@H]1c1ccccc1` (relative stereo) [Example 108], the inhibition at 10 µM in assay [1] came out at 87%. Moreover, the IC50 in assay [2] worked out at 1300 nM.

On to `COc1ccc(NC(=O)N2NC(=O)[C@@H](c3ccccc3)[C@@H]2c2ccccc2)cc1` (relative stereo) [Example 33], for which the inhibition at 10 µM in assay [1] came out at 20%. Moreover, in assay [2], the IC50 was determined as 340 nM.

As for `Cc1cccc(NC(=O)N2NC(=O)[C@H](c3ccccc3)[C@H]2c2ccccc2)c1` (relative stereo) [Example 41], the inhibition at 10 µM in assay [1] came out at 21%; in assay [2], 57%.

Turning to `O=C1NN(C(=O)Cc2ccc(Cl)c(Cl)c2)[C@@H](c2ccccc2)[C@@H]1c1ccccc1` (relative stereo) [Example 78], in assay [1], the inhibition at 10 µM was determined as 49%. The IC50 in assay [2] was found to be 1800 nM.

`O=C1NN(C(=O)NCc2ccc(Cl)cc2)[C@@H](c2ccccc2)[C@@H]1c1ccccc1` (relative stereo) [Example 100]: in assay [1], the inhibition at 10 µM amounted to 78%. In assay [2], the IC50 was found to be 2200 nM.

With `O=C1NN(C(=O)Cc2ccc(C(F)(F)F)cc2)[C@H](c2ccccc2)[C@H]1c1ccccc1` (relative stereo) [Example 77], the inhibition at 10 µM in assay [1] came out at 20%; in assay [2], 56%.

Regarding `O=C1NN(C(=O)Nc2cc(C(F)(F)F)ccc2Cl)[C@H](c2ccccc2)[C@H]1c1ccccc1` (relative stereo) [Example 57], the inhibition at 10 µM in assay [1] was found to be 45%. In assay [2], the IC50 was 1000 nM.
